According to patent publication US8236792B2, “Substituted pyrrolidine amides as modulators of the histamine H3 receptor” (Janssen Pharmaceutica NV, priority 2008, dated 2012):

Each molecule was assayed against human H3 receptor (Homo sapiens, UniProt Q9Y5N1) (assay: H3 Receptor Binding (Human) Method 2, [125I]-iodoproxyfan competitive radioligand binding). Settings: not given.
Parameters: expressed in transfected cells

Sequence of human H3 receptor (Q9Y5N1 whole entry): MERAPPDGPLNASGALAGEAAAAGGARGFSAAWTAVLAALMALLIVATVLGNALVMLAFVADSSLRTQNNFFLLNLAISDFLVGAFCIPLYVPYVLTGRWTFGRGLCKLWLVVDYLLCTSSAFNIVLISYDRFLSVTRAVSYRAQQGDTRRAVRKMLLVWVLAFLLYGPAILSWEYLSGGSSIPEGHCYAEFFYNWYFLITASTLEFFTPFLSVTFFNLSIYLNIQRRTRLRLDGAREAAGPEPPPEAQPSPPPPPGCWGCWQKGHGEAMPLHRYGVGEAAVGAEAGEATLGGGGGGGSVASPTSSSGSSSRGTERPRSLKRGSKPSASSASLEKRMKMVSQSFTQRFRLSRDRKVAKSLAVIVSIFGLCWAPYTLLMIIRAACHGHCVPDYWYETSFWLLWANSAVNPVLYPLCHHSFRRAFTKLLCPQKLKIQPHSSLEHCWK

| Structure (SMILES) | Ki [nM] |
| --- | --- |
| O=C([C@H]1C[C@H](Oc2ccccn2)CN1)N1CCCN(C2CCC2)CC1 [Example 98, (2R,4S)-2-(4-Cyclobutyl-[1,4]diazepane-1-carbonyl)-4-(pyridin-2-yloxy)-pyrrolidine] | 5 |
| CC(=O)N1C[C@@H](Oc2cccc(F)c2)C[C@H]1C(=O)N1CCCN(C2CCC2)CC1 [Example 115, (2S,4S)-1-[2-(4-Cyclobutyl-[1,4]diazepane-1-carbonyl)-4-(3-fluoro-phenoxy)-pyrrolidin-1-yl]-ethanone] | 21 |

Same assay, conditions: Method 2; SK-N-MC cell membranes; [125I]-iodoproxyfan 1 nM; apparent Ki; free base or hydrochloride salt; average of results; read-out: Human H3 Ki

| Structure (SMILES) | Ki [nM] |
| --- | --- |
| CC(C)N1C[C@@H](Oc2ccc(F)cc2)C[C@@H]1C(=O)N1CCCN(C2CCC2)CC1 [Example 112, (2R,4S)-1-Isopropyl-1-cyclobutyl-2-(4-cyclobutyl-[1,4]diazepane-1-carbonyl)-4-(4-fluoro-phenoxy)-pyrrolidine] | 12 |

Same assay, conditions: read-out: Human H3 Ki

| Structure (SMILES) | Ki [nM] |
| --- | --- |
| CC(C)(C)OC(=O)N1C[C@@H](Oc2ccc(C#N)cc2)C[C@@H]1C(=O)N1CCCN(C2CCCC2)CC1 [Example 36, (2R,4S)-4-(4-Cyano-phenoxy)-2-(4-cyclopentyl-[1,4]diazepane-1-carbonyl)-pyrrolidine-1-carboxylic acid tert-butyl ester] | 3 |
| CN(C)[C@@H]1CCN(C(=O)[C@H]2C[C@H](Oc3cccc(F)c3)CN2C(=O)OC(C)(C)C)C1 [Example 37, (2R,4S)-2-((3R)-3-Dimethylamino-pyrrolidine-1-carbonyl)-4-(3-fluoro-phenoxy)-pyrrolidine-1-carboxylic acid tert-butyl ester] | > 10000 |
| CC(C)(C)OC(=O)N1C[C@@H](Oc2cccc(F)c2)C[C@@H]1C(=O)N1CCC(N2CCCC2)C1 (stereo partly drawn) [Example 39, (2R,4S)-2-([1,3′]Bipyrrolidinyl-1′-carbonyl)-4-(3-fluoro-Phenoxy)-pyrrolidine-1-carboxylic acid tert-butyl ester] | 43 |
| CN(C)C1CCN(C(=O)[C@H]2C[C@H](Oc3ccc(F)cc3)CN2C(=O)OC(C)(C)C)CC1 [Example 40, (2R,4S)-2-(4-Dimethylamino-piperidine-1-carbonyl)-4-(4-fluoro-phenoxy)-pyrrolidine-1-carboxylic acid tert-butyl ester] | 1240 |
| CC(C)(C)OC(=O)N1C[C@H](Oc2ccccc2)C[C@H]1C(=O)N1CCCN(C2CCC2)CC1 [Example 48, (2S,4R)-2-(4-Cyclobutyl-[1,4]diazepane-1-carbonyl)-4-phenoxy-pyrrolidine-1-carboxylic acid tert-butyl ester] | 14 |
| CC(C)(C)OC(=O)N1C[C@H](Oc2cccc(F)c2)C[C@H]1C(=O)N1CCCN(C2CCC2)CC1 [Example 49, (2S,4R)-2-(4-Cyclobutyl-[1,4]diazepane-1-carbonyl)-4-(3-fluoro-phenoxy)-pyrrolidine-1-carboxylic acid tert-butyl ester] | 6 |
| Cc1cnc(O[C@H]2C[C@H](C(=O)N3CCCN(C4CCC4)CC3)N(C(=O)OC(C)(C)C)C2)cc1I [Example 52, (2R,4S)-2-(4-Cyclobutyl-[1,4]diazepane-1-carbonyl)-4-(4-iodo-5-methyl-pyridin-2-yloxy)-pyrrolidine-1-carboxylic acid tert-butyl ester] | 8 |
| CC(C)(C)OC(=O)N1C[C@@H](Oc2cccnc2)C[C@@H]1C(=O)N1CCCN(C2CCC2)CC1 [Example 53, (2R,4S)-2-(4-Cyclobutyl-[1,4]diazepane-1-carbonyl)-4-(pyridin-3-yloxy)-pyrrolidine-1-carboxylic acid tert-butyl ester] | 2 |
| CC(C)(C)OC(=O)N1C[C@@H](Oc2ccsc2)C[C@@H]1C(=O)N1CCCN(C2CCC2)CC1 [Example 54, (2R,4S)-2-(4-Cyclobutyl-[1,4]diazepane-1-carbonyl)-4-(thiophen-3-yloxy)-pyrrolidine-1-carboxylic acid tert-butyl ester] | 11 |
| CC(C)(C)OC(=O)N1C[C@H](Oc2cccc(F)c2)C[C@@H]1C(=O)N1CCCN(C2CCC2)CC1 [Example 55, (2R,4R)-2-(4-Cyclobutyl-[1,4]diazepane-1-carbonyl)-4-(3-fluoro-phenoxy)-pyrrolidine-1-carboxylic acid tert-butyl ester] | 57 |
| CC(C)(C)OC(=O)N1C[C@H](Oc2ccc(F)cc2)C[C@@H]1C(=O)N1CCCN(C2CCC2)CC1 [Example 56, (2R,4R)-2-(4-Cyclobutyl-[1,4]diazepane-1-carbonyl)-4-(4-fluoro-phenoxy)-pyrrolidine-1-carboxylic acid tert-butyl ester] | 49 |
| CC(C)(C)OC(=O)N1C[C@H](Oc2ccc(Cl)cc2)C[C@@H]1C(=O)N1CCCN(C2CCC2)CC1 [Example 57, (2R,4R)-4-(4-Chloro-phenoxy)-2-(4-cyclobutyl-[1,4]diazepane-1-carbonyl)-pyrrolidine-1-carboxylic acid tert-butyl ester] | 93 |
| CC(C)(C)OC(=O)N1C[C@H](Oc2ccccc2)C[C@@H]1C(=O)N1CCCN(C2CCC2)CC1 [Example 58, (2R,4R)-2-(4-Cyclobutyl-[1,4]diazepane-1-carbonyl)-4-phenoxy-pyrrolidine-1-carboxylic acid tert-butyl ester] | 211 |
| CC(C)(C)OC(=O)N1C[C@H](Oc2ccc(C#N)cc2)C[C@@H]1C(=O)N1CCCN(C2CCC2)CC1 [Example 60, (2R,4R)-4-(4-Cyano-phenoxy)-2-(4-cyclobutyl-[1,4]diazepane-1-carbonyl)-pyrrolidine-1-carboxylic acid tert-butyl ester] | 160 |
| CC(C)(C)OC(=O)N1C[C@@H](Sc2ccc(F)cc2)C[C@@H]1C(=O)N1CCCN(C2CCC2)CC1 [Example 61, (2R,4S)-2-(4-Cyclobutyl-[1,4]diazepane-1-carbonyl)-4-(4-fluoro-phenylsulfanyl)-pyrrolidine-1-carboxylic acid tert-butyl ester] | 17 |
| Cc1cccc(O[C@@H]2CN[C@@H](C(=O)N3CCCN(C4CCC4)CC3)C2)c1 [Example 74, (2R,4S)-4-(4-m-Tolyloxy)-2-(4-cyclobutyl-[1,4]diazepane-1-carbonyl)-pyrrolidine] | 5 |

| Structure (SMILES) | Ki [nM] |
| --- | --- |
| O=C([C@H]1C[C@H](Oc2ccc(C(F)(F)F)cc2)CN1)N1CCCN(C2CCC2)CC1 [Example 75, (2R,4S)-4-(4-Trifluoromethyl-phenoxy)-2-(4-cyclobutyl-[1,4]diazepane-1-carbonyl)-pyrrolidine] | 4 |
| Cc1ccc(O[C@@H]2CN[C@@H](C(=O)N3CCCN(C4CCC4)CC3)C2)cc1 [Example 76, (2R,4S)-4-(4-p-Tolyloxy)-2-(4-cyclobutyl-[1,4]diazepane-1-carbonyl)-pyrrolidine] | 5 |
| Cc1ccccc1O[C@@H]1CN[C@@H](C(=O)N2CCCN(C3CCC3)CC2)C1 [Example 77, (2R,4S)-4-(4-o-Tolyloxy)-2-(4-cyclobutyl-[1,4]diazepane-1-carbonyl)-pyrrolidine] | 3 |
| O=C([C@H]1C[C@H](Oc2ccc(F)cc2)CN1)N1CCCN(C2CC2)CC1 [Example 78, (2R,4S)-2-(4-Cyclopropyl-[1,4]diazepane-1-carbonyl)-4-(4-fluoro-phenoxy)-pyrrolidine] | 20 |
| N#Cc1ccc(O[C@@H]2CN[C@@H](C(=O)N3CCCN(C4CC4)CC3)C2)cc1 [Example 79, (2R,4S)-4-(4-Cyano-phenoxy)-2-(4-cyclopropyl-[1,4]diazepane-1-carbonyl)-pyrrolidine] | 12 |
| O=C([C@H]1C[C@H](Oc2ccc(F)cc2)CN1)N1CCN(C2CCCC2)CC1 [Example 80, (2R,4S)-2-(4-Cyclopentyl-piperazine-1-carbonyl)-4-(4-fluoro-phenoxy)-pyrrolidine] | 40 |
| N#Cc1ccc(O[C@@H]2CN[C@@H](C(=O)N3CCN(C4CCCC4)CC3)C2)cc1 [Example 81, (2R,4S)-4-(4-Cyano-phenoxy)-2-(4-cyclopentyl-piperazine-1-carbonyl)-pyrrolidine] | 23 |
| CN(C)[C@H]1CCN(C(=O)[C@H]2C[C@H](Oc3cccc(F)c3)CN2)C1 [Example 85] | 1300 |
| Cc1cnc(F)cc1O[C@@H]1CN[C@@H](C(=O)N2CCCN(C3CCC3)CC2)C1 [Example 99, (2R,4S)-2-(4-Cyclobutyl-[1,4]diazepane-1-carbonyl)-4-(2-fluoro-5-methyl-pyridin-4-yloxy)-pyrrolidine] | 2 |
| Cc1cnc(O[C@@H]2CN[C@@H](C(=O)N3CCCN(C4CCC4)CC3)C2)cc1I [Example 100, (2R,4S)-2-(4-Cyclobutyl-[1,4]diazepane-1-carbonyl)-4-(4-iodo-5-methyl-pyridin-2-yloxy)-pyrrolidine] | 2 |
| O=C([C@H]1C[C@H](Oc2cccnc2)CN1)N1CCCN(C2CCC2)CC1 [Example 101, (2R,4S)-2-(4-Cyclobutyl-[1,4]diazepane-1-carbonyl)-4-(Pyridin-3-yloxy)-pyrrolidine] | 3 |
| CC(C)N1C[C@@H](Oc2ccc(F)cc2)C[C@H]1C(=O)N1CCCN(C2CCC2)CC1 [Example 108, (2S,4S)-(4-Cyclobutyl-[1,4]diazepan-1-yl)-[4-(4-fluoro-phenoxy)-1-isopropyl-pyrrolidin-2-yl]-methanone] | 594 |
| CCN1C[C@@H](Oc2ccc(F)cc2)C[C@H]1C(=O)N1CCCN(C2CCC2)CC1 [Example 109, (2S,4S)-(4-Cyclobutyl-[1,4]diazepan-1-yl)-[1-ethyl-4-(4-fluoro-phenoxy)-pyrrolidin-2-yl]-methanone] | 55 |
| O=C([C@H]1C[C@H](Oc2ccc(F)cc2)CN1C1CCC1)N1CCCN(C2CCC2)CC1 [Example 111, (2R,4S)-1-Cyclobutyl-2-(4-cyclobutyl-[1,4]diazepane-1-carbonyl)-4-(4-fluoro-phenoxy)-pyrrolidine] | 17 |
| O=C([C@H]1C[C@H](Oc2ccc(F)cc2)CN1CC1CC1)N1CCCN(C2CCC2)CC1 [Example 113, (2R,4S)-1-Cyclopropylmethyl-2-(4-cyclobutyl-[1,4]diazepane-1-carbonyl)-4-(4-fluoro-phenoxy)-pyrrolidine] | 7 |
| CC(C)C(=O)N1C[C@@H](Oc2cccc(F)c2)C[C@@H]1C(=O)N1CCCN(C2CCC2)CC1 [Example 123, (2R,4S)-1-[2-(4-Cyclobutyl-[1,4]diazepane-1-carbonyl)-4-(3-fluoro-phenoxy)-pyrrolidin-1-yl]-2-methyl-propan-1-one] | 18 |
